According to patent publication US6630312B2, “Method for identifying compounds for treatment of insulin resistance” (Joslin Diabetes Center, Inc., priority 1999, dated 2003):

Columns and labels:
[1] = test system: Zucker fa/fa rats; assay: Effects of high-dose salicylates in Zucker fa/fa rats (GTT, ITT, serum lipids, ALT)
Text: (§1) Ob/ob mice are leptin deficient.

[2] = test system: Zucker fa/+ rats; assay: Effects of high-dose aspirin in Zucker fa/+ rats (oral GTT); format: in vivo, rat; conditions: 120 mg/kg/day
Text: as §1

[3] = test system: ob/+ mice; assay: Effects of high-dose aspirin in ob/+ mice (GTT); format: in vivo, mouse; conditions: aspirin treatment, 120 mg/kg/day; intraperitoneal GTT
Text: as §1

[4] = test system: Insulin receptor (IR); assay: Insulin receptor tyrosine autophosphorylation in tissues from treated Zucker rats; format: in vivo, rat; conditions: liver and muscle of treated Zucker rats vs untreated
Description: (§2) Tissues were isolated from treated animals and insulin signaling proteins were analyzed. […] A cascade consisting of insulin receptor (IR), insulin-receptor substrate (IRS) proteins, PI 3-kinase and 3-phosphoinositide-dependent protein kinase-1 (PDK1), is required for maintenance of metabolic homeostasis.

[5] = test system: AKT kinase; assay: Insulin-stimulated AKT phosphorylation in tissues from treated Zucker rats; format: in vivo, rat; conditions: liver and muscle of treated Zucker rats vs untreated
Description: as §2

[6] = test system: IRS-1; assay: Electrophoretic mobility of IRS-1 from livers of treated animals; format: in vivo; conditions: animal livers; suggests decrease in Ser/Thr phosphorylation
Text: In cultured cells, IRS proteins are especially prone to phosphorylation on serine and threonine residues, which opposes the effect of tyrosine phosphorylation by inhibiting signaling.

[7] = test system: IR β-subunit; assay: Insulin-stimulated tyrosine phosphorylation of IR in 3T3-L1 adipocytes made 'insulin resistant'; format: cell-based
Description: (§3) Culture cells were used as follows to investigate the mechanisms relating to salicylate treatment to the in vivo reversal of insulin resistance. TNF-α treatment of 3T3-L1 adipocytes induced ‘insulin resistance’, as judged by significant decreases in insulin-stimulated tyrosine phosphorylation of IR β-subunit (42±11%) and IRS-1 (37±9%). TNF-α mediated ‘insulin resistance’ was reversed by pretreatment with high-dose (5 mM) aspirin. IR and IRS-1 phosphorylation levels were restored to 126±24% and 136±35%, respectively, compared to untreated controls; IR and IRS-1 protein levels were unchanged in TNF-α and aspirin-treated cells. TNF-α activates a cascade of adapters and kinases, including TRADD, RIP, TRAF2, and TAB1, which act upstream of JNK, p38 MAPK, and the IKK complex. Okadaic acid and calyculin A, two phosphatase inhibitors, also activate IKKβ (DiDonato et al. (1997) Nature 388:548; Harhaj & Sun (1997) J Biol Chem 272:5409), but without activating upstream elements in the TNF-α signaling cascade. Okadaic acid and calyculin A also induce ‘insulin resistance’ in isolated tissues and cultured cells (Robinson et al (1993) Am J Physiol 265:E36; Paz et al (1997) J. Biol Chem 272:29911). Therefore, it was determined whether aspirin would reverse ‘insulin resistance’ caused by these inhibitors. Marked reductions in insulin-stimulated IR (29±12%) and IRS-1 (16±2%) tyrosine-phosphorylation were prevented by incubating the cells with high-dose aspirin (109±15% and 93±25%, respectively).
(§4) Hyperglycemia- and hyperinsulinemia-induced insulin resistance in diabetic subjects can be mimicked in cell culture by incubation with high concentrations of glucose and insulin. Potential mechanisms include glucose-induced activation of PKC, which can activate IKK. […] Concurrent treatment with aspirin restored IR (107±23%) and IRS-1 (90±23%) tyrosine-phosphorylation to levels seen in cells incubated at 5.5 mM glucose. […] Protein levels were restored by concurrent treatment with aspirin. Serine phosphorylation of IκB leads to ubiquitination and proteosome-mediated degradation. IRS proteins may be degraded by a similar route and in both cases, downregulation was inhibited by aspirin.

[8] = test system: IRS-1; assay: Insulin-stimulated tyrosine phosphorylation of IRS-1 in 3T3-L1 adipocytes made 'insulin resistant'; format: cell-based
Description: as §3, §4

[9] = test system: IRS-2; assay: Tyrosine phosphorylation of IRS-2 in Fao hepatoma cells, TNF-α induced 'insulin resistance'; format: cell-based; conditions: Fao hepatoma cells, TNF-α plus drug
[10] = test system: IR, IRS-2 and AKT; assay: Insulin-stimulated activation of IR, IRS-2 and AKT in HEK293 cells expressing IKKβ, IKKα or NIK; format: cell-based; conditions: treatment with aspirin
Text: To directly test the potential role of IKK, The IKKα and IKKβ catalytic subunits and NIK, an upstream activator, were expressed in HEK293 cells. Insulin stimulated the activation of IR, IRS-2 and AKT in these cells. Activation was attenuated by expression of IKKβ, IKKα or NIK. Attenuated activation was reversed by treatment with aspirin.

[11] = test system: Sprague-Dawley rats; assay: Insulin sensitivity in Sprague-Dawley rats on aspirin treatment; format: in vivo, rat; conditions: rats not insulin resistant, obese, or diabetic
[12] = test system: ob/ob mice; conditions: 120 mg/kg/day
Description: FIGS. 1A-H: In vivo effects of aspirin in Zucker fatty rats and ob/ob mice. (panels A-F) Twelve-week-old male Zucker rats (Harlan) and (panels G,H) eight-week-old ob/ob and ob/+ mice (Jackson Labs) were given free access to food and water. […] For glucose tolerance tests (GTT), glucose (2.0 g/kg) was administered by oral gavage (rats) or intraperitoneal injection (mice) after an overnight fast. (panels A,C) Blood glucose and (panels B,D) serum insulin levels were determined during oral glucose tolerance tests in (panels A,B) six Zucker fa/fa rats and (panels C,D) six fa/+ rats. For insulin tolerance tests (ITT) in (panel E) six Zucker fa/fa rats, insulin (2.0 U/kg) was injected intraperitoneally after an overnight fast. (panel F) Cholesterol (Chol), triglyceride (TG), long chain free fatty acid (FFA), and liver alanine aminotransferase (ALT) levels were measured in sera from fasting Zucker fa/fa rats. Glucose tolerance tests were conducted with (panel G) ten ob/ob mice and (panel H) ten ob/+ mice. Data are mean±SEM values; some SEM values are within the area of the symbols.
A determination of the effects of high-dose salicylates on obese rodents with severe insulin resistance was performed as follows. Twelve-week-old male Zucker fa/fa rats and eight-week-old male ob/ob mice were treated for 3-4 weeks with 120 mg/kg/day of aspirin or salicylate, administered by continuous subcutaneous infusion; this dose is roughly equivalent to 5-10 g/day in humans.

[13] = target: T1, IKKβ (Homo sapiens, UniProt O14920); conditions: Yin et al (1998); cited from earlier work
T1 sequence (O14920 1-756): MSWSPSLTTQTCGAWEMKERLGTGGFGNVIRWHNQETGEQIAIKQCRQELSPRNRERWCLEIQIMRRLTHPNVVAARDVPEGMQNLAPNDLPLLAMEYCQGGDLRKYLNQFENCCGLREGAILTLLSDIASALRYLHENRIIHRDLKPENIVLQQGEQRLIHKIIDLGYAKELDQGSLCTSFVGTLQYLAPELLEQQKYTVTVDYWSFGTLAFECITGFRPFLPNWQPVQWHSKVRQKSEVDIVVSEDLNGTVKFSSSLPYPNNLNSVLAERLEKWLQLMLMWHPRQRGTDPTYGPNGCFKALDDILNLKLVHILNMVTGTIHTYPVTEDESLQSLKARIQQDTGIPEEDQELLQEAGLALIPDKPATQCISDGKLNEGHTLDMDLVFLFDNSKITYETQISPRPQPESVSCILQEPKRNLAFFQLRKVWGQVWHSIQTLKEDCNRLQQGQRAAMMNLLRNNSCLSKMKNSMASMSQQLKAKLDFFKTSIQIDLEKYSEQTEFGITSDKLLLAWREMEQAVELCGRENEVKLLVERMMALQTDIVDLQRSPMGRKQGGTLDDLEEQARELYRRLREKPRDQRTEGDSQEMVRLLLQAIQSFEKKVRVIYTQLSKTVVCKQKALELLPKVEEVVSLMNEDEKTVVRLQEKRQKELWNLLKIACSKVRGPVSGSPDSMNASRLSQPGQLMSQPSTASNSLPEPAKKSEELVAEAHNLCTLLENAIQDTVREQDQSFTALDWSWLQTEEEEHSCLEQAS

[14] = test system: cyclooxygenases; conditions: Furst (1994); cited from earlier work
[15] = 3T3-L1 adipocytes overnight in 25 mM glucose and 10 nM insulin, concurrent aspirin, relative to cells at 5.5 mM glucose
[16] = 3T3-L1 adipocytes, TNF-α, pretreatment with 5 mM aspirin
[17] = phosphatase inhibitor-induced 'insulin resistance', cells incubated with high-dose aspirin

CC(=O)Oc1ccccc1C(=O)O [aspirin]
Insulin levels during glucose tolerance test ([1]; 120 mg/kg/day continuous subcutaneous infusion, 3-4 weeks, oral GTT): Concomitant reductions | Fasting blood glucose values and glucose tolerance ([1]; 120 mg/kg/day continuous subcutaneous infusion, 3-4 weeks, oral GTT, compared to untreated controls): improved | Food intake, blood chemistry, or body weight ([1]; Zucker fa/fa rats, 120 mg/kg/day): Neither aspirin nor salicylate affected | Free fatty acid (FFA) levels ([1]; after the treatment period, aspirin 120 mg/kg/day): 1.1 ± 0.2 mM | Fasting triglyceride levels ([1]; after three weeks of aspirin treatment, 120 mg/kg/day): 90 ± 58 mg/dL | Cholesterol levels ([1]; fasting serum, aspirin 120 mg/kg/day): unaffected | Blood glucose in insulin tolerance test ([1]; intraperitoneal insulin 2.0 U/kg after overnight fast, aspirin-treated animals): dramatic decreases | Time to drop in FFA levels after aspirin initiation ([1]; preceding reductions in triglyceride and glucose levels): ≤ 1 week | Serum levels of liver enzyme alanine aminotransferase (ALT) (hepatotoxicity) ([1]; throughout the studies): normal, low | Insulin levels during glucose tolerance test ([2]; aspirin-treated group): Significantly lower | Glucose levels during glucose tolerance test ([2]; following aspirin treatment): marginally reduced | Glucose intolerance [3]: normalized | Insulin receptor (IR) tyrosine autophosphorylation [4]: Significantly increased stimulation | Insulin-stimulated AKT phosphorylation [5]: increased | Electrophoretic mobility of IRS-1 [6]: increased | Insulin-stimulated IR tyrosine-phosphorylation [7, 15]: 107±23% | IR and IRS-1 protein levels ([7]; 3T3-L1 adipocytes, TNF-α and aspirin-treated cells): unchanged | IR phosphorylation level compared to untreated controls [7, 16]: 126±24% | Protein levels of insulin signaling proteins downregulated by high glucose and insulin ([7]; 3T3-L1 adipocytes, concurrent treatment with aspirin): restored | Insulin-stimulated IR tyrosine-phosphorylation [7, 17]: 109±15% | Insulin-stimulated IRS-1 tyrosine-phosphorylation [8, 15]: 90±23% | IRS-1 phosphorylation level compared to untreated controls [8, 16]: 136±35% | Insulin-stimulated IRS-1 tyrosine-phosphorylation [8, 17]: 93±25% | Reduced electrophoretic mobility of IRS-1 due to calyculin A-induced phosphorylation ([8]; with aspirin): reversed | Tyrosine-phosphorylation of IRS-2 [9]: 115±31% | Activation of IR, IRS-2 and AKT attenuated by expression of IKKβ, IKKα or NIK [10]: reversed | Insulin sensitivity [11]: increased insulin sensitivity | Fasting blood glucose values and glucose tolerance ([12]; 3-4 weeks, intraperitoneal GTT, compared to untreated controls, every time point): significantly improved | Food intake, blood chemistry, or body weight ([12]; ob/ob mice): Neither aspirin nor salicylate affected | Inhibition of IKKβ, relative potency [13]: equipotent inhibitors | Potency towards the cyclooxygenases, aspirin relative to sodium salicylate [14]: ~100 fold
